Source: ChEMBL document CHEMBL1201862, “PubChem BioAssay data set” (2004)
Values belong to the compound of their own block, whether it stands above or below them. Calls of active or inactive are those of the source.

Columns and labels:
[1] = NIH-3T3 fibroblast cytotoxicity, dose response, cytotoxicity control, cell-based, fluorescence, Alamar Blue, secondary assay (AID 2327); type: functional;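 also: NIH-3T3 mouse fibroblasts cultured with fluconazole at 8 µg/mL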
[2] = Luminescence Cell-Based Dose Retest to Confirm Inhibitors of Cancer Stem Cells. [Related pubchem assays (depositor defined):AID2717, AID2721]; type: functional, Homo sapiens; details: Homo sapiens
[3] = C. albicans growth with fluconazole, confirmation, fluorescence, retest (AID 2467); type: functional, cell-based
[4] = human group III sPLA2 inhibitors, dose response, biochemical, QFRET, IC50 (AID 743457);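 also: green fluorescence rise as the enzyme cleaves BODIPY PC-A2 in liposomes; potency for inhibition of the enzyme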
[5] = target: Potassium channel subfamily K member 3 (Rattus norvegicus, UniProt O54912); assay: SAR analysis for the identification of selective inhibitors of the two-pore domain potassium channel TASK1(KCNK3):Automated Electrophysiology.; type: functional
[6] = target: Potassium channel subfamily K member 9 (Homo sapiens, UniProt Q9NPC2); assay: TASK3 (KCNK9) channel inhibitors, thallium flux, SAR follow-up, selectivity assay for TASK1 inhibitor project, cell-based, FluxOR thallium flux, concentration-response (AID 652211); type: functional;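 also: potency is for inhibitors of the channel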
[7] = target: Potassium channel subfamily K member 3 (Homo sapiens, UniProt O14649); assay: TASK1 (KCNK3) potassium channel inhibitors, SAR follow-up, CHO cells, FluxOR thallium flux (AID 652212); type: functional
[8] = target: Disintegrin and metalloproteinase domain-containing protein 17 (Homo sapiens, UniProt P78536); assay: exosite inhibitors of ADAM17, dose response, biochemical (AID 743260)
[9] = ADAM10 protease inhibitors, dose response, selectivity assay for ADAM17 exosite inhibitor project, biochemical, FRET peptide substrate, recombinant human ADAM10 (AID 743259);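 also: ADAM10 enzyme cleaving a FRET peptide substrate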
[10] = system: T-cell; assay: inhibitors of CD8+ T cell–vesicle binding, dose response, mouse 2C CD8+ T cells, flow cytometry (AID 485284); type: functional
[11] = target: T1, Mannose-6-phosphate isomerase (Homo sapiens, UniProt P34949); assay: inhibitors of human PMI, primary screen, biochemical, fluorescence intensity, coupled assay (AID 1209)
T1 sequence (P34949 whole entry): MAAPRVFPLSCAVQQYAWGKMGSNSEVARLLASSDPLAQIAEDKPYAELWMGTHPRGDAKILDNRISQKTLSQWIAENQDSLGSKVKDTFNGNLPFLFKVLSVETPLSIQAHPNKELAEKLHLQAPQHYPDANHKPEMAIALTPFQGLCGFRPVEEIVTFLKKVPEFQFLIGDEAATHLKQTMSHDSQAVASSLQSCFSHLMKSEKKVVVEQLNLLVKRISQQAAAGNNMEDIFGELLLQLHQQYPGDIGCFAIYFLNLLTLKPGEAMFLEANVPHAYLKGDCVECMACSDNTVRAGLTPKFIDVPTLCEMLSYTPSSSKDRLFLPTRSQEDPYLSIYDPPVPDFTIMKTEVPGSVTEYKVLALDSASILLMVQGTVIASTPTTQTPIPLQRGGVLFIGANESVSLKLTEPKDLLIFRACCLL

[12] = EDANS-DABCYL fluorescence interference, concentration series, dose response, artefact control for kallikrein-7 zymogen activator project, biochemical, fluorescence intensity, triplicate (AID 720493)
[13] = target: Kallikrein-7 (Homo sapiens, UniProt P49862); assay: Fluorescence Intensity-based biochemical primary high throughput dose response assay to identify activators of kallikrein-7 (K7) zymogen.
[14] = PAX5 activity inhibitors, dose response, selectivity assay for PAX8 inhibitor project, cell-based, plate reader, dry powder samples (AID 743047); type: functional;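 also: HEK293 cells carrying a Pax5 driven CD19 promoter luciferase reporter; potency of inhibitors that lower reporter luminescence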
[15] = cytotoxicity in OV-90 ovarian cancer cells, dose response, PAX8 inhibitor project, cell-based, plate reader, dry powder, SA8 (AID 743149); type: functional
[16] = cytotoxicity dependent on PAX8, dose response, cell-based, plate reader, dry powder (AID 743049); type: functional
[17] = cytotoxicity in OVCAR8 ovarian cancer cells, dose response, PAX8 project, cell-based, plate reader, dry powder samples (AID 743197); type: functional; details: OVCAR-8
[18] = target: Paired box protein Pax-8 (Homo sapiens, UniProt Q06710); assay: inhibitors of PAX8-driven TPO luciferase reporter, dose response, RMG-I cells, cherry-pick (AID 687027); type: functional, cell-based;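 also: luciferase reporter driven by Pax8 target thyroperoxidase promoter measured by SteadyGlo luminescence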
[19] = inhibitors of HIV Env-driven cell fusion, dose response, cherry-pick (AID 652057); type: functional, cell-based
[20] = cytotoxicity in COV434 cells, dose response, cytotoxicity control for PAX8 inhibitor project, cell-based, plate reader, dry powder, SA7 (AID 743145); type: functional
[21] = cytotoxicity in OVCAR4 cells, dose response, cytotoxicity control for PAX8 inhibitor project, cell-based, plate reader, dry powder, SA11 (AID 743150); type: functional; details: OVCAR-4
[22] = PAX2 cell-based inhibition, dose response, selectivity assay for PAX8 inhibitor project, plate reader, dry powder samples (AID 743048); type: functional;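 also: HEK293 cells carrying a WT1 promoter luciferase reporter driven by expressed Pax2; potency is for inhibition of Pax2 driven reporter signal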
[23] = NIH:OVCAR-3 ovarian cancer cell cytotoxicity, dose response, PAX8 inhibitor project, plate reader, dry powder samples (AID 743044); type: functional, cell-based
[24] = Late stage assay provider results from the probe development effort to identify selective inhibitors of heat shock protein 90 (HSP90): Absorbance-based cell proliferation assay in MCF7 cells.; type: functional
[25] = Late stage assay provider results from the probe development effort to identify selective inhibitors of heat shock protein 90 (HSP90): Absorbance-based cell proliferation assay in SKBR3 cells.; type: functional; details: SK-BR-3
[26] = HEK293T cell cytotoxicity, dose response, cytotoxicity control, luminescence plate reader, powder samples, set 4 (AID 651863); type: functional, cell-based; details: HEK293
[27] = target: Metabotropic glutamate receptor 3 (Rattus norvegicus, UniProt P31422); assay: mGlu3 NAM potency via calcium readout, dose response, mGlu3 NAM project, TREx293 cells, Galpha15, calcium flux (AID 651840); type: functional
Metabotropic glutamate receptor 3, sequence (P31422 whole entry): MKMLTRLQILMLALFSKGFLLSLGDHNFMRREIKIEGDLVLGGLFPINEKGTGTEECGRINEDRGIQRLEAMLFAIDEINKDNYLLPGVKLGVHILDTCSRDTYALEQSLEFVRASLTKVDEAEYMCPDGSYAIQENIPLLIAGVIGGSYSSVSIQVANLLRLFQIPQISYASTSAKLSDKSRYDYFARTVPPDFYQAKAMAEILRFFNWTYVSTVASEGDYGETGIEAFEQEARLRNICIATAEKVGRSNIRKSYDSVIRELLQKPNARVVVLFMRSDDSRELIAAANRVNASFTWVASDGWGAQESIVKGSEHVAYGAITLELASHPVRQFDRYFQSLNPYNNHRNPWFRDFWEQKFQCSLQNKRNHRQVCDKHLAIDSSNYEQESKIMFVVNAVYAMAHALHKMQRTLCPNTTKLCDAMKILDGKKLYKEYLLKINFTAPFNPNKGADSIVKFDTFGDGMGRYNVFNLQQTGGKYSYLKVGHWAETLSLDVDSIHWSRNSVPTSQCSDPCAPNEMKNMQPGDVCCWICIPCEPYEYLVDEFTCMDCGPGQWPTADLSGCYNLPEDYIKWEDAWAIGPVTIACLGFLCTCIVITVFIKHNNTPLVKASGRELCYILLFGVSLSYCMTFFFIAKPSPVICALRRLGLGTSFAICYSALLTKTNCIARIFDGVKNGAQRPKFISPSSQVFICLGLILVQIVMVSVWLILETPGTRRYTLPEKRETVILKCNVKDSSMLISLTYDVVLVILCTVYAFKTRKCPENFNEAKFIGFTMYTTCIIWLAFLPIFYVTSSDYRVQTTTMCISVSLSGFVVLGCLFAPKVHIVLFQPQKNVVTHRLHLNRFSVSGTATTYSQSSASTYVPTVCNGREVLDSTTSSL

Disintegrin and metalloproteinase domain-containing protein 17, sequence (P78536 whole entry, the tested form may be a part): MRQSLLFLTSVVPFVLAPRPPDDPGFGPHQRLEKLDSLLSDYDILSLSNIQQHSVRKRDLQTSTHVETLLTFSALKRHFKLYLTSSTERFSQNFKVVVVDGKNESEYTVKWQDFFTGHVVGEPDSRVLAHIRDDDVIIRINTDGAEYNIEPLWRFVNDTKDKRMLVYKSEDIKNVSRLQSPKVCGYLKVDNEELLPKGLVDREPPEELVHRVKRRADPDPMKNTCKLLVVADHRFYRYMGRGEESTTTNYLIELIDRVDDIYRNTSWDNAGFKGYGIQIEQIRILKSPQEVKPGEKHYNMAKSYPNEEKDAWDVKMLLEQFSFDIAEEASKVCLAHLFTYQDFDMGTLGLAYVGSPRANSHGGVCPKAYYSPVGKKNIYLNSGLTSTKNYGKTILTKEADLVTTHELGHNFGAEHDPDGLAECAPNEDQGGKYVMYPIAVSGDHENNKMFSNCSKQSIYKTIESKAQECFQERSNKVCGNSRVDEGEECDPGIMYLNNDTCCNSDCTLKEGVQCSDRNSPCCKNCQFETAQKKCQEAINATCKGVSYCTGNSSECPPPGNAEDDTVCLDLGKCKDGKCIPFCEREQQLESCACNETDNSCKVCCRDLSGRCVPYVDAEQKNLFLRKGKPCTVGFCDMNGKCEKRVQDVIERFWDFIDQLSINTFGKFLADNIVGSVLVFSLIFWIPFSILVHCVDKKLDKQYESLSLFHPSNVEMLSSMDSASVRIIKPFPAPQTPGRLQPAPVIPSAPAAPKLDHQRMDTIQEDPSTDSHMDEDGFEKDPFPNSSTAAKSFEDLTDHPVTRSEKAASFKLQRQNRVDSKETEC
Potassium channel subfamily K member 3 (Rattus norvegicus, UniProt O54912), sequence (O54912 whole entry, the tested form may be a part): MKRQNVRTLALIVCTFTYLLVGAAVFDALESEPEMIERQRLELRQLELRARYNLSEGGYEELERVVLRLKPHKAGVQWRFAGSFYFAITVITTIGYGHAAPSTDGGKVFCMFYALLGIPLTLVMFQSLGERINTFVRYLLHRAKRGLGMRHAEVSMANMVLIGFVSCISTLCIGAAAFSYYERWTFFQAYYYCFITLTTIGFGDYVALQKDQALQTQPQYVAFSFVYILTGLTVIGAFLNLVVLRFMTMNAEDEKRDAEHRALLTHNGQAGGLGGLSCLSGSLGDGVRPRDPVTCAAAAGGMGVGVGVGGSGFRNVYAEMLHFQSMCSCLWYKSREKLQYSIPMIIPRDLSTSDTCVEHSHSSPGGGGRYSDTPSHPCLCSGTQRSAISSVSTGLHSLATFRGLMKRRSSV
Potassium channel subfamily K member 3 (Homo sapiens, UniProt O14649), sequence (O14649 whole entry, the tested form may be a part): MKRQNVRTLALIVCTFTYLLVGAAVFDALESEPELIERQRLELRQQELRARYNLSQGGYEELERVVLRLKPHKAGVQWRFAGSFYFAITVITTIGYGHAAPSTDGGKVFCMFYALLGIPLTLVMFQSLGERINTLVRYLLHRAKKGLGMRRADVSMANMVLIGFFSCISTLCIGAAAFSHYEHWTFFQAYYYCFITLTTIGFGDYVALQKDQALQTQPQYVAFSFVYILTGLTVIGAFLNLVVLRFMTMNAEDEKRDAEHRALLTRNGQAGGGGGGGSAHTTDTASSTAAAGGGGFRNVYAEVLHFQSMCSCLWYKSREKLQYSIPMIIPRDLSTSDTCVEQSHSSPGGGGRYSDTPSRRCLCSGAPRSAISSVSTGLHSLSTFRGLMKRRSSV
Paired box protein Pax-8, sequence (Q06710 whole entry, the tested form may be a part): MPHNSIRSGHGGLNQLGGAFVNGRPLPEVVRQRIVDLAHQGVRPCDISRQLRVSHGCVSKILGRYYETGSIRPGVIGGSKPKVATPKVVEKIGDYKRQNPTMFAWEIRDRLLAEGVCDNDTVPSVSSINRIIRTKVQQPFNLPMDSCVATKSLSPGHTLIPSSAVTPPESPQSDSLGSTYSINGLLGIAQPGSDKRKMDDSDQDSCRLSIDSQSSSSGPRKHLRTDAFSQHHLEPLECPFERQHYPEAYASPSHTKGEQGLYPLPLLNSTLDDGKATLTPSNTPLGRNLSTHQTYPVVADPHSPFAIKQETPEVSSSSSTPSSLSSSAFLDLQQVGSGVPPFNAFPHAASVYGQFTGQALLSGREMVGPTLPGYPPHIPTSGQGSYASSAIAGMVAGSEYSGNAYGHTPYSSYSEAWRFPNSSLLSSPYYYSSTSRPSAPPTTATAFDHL
Kallikrein-7, sequence (P49862 whole entry): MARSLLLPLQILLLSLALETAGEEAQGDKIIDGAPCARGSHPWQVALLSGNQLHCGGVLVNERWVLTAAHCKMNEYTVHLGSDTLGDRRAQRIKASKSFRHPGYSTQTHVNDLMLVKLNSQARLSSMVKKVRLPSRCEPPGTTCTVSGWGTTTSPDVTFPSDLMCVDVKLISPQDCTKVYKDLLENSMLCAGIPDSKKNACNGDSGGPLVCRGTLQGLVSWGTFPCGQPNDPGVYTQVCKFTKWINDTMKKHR
Potassium channel subfamily K member 9, sequence (Q9NPC2 whole entry): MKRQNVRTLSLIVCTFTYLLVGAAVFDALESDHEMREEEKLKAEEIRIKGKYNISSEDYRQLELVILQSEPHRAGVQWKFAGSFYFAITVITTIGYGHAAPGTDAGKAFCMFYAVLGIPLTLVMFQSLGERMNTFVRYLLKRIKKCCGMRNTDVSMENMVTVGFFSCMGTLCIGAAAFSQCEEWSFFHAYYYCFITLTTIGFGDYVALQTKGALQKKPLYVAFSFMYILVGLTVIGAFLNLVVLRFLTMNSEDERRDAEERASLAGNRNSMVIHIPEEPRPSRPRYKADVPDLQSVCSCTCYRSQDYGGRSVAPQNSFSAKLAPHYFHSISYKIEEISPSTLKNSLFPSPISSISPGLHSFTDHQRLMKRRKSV

SMILES: Cc1cc(C)c2nc(NNC(=O)c3cc(-c4cccs4)nc4ccccc34)sc2c1
EC50 [1]: 10.7 µM (active)
AC50 [2]: 2.13 µM (active)
EC50 [3]: > 38 µM (not active)
IC50 [4]: 53.9 µM (inactive)

IC50 [5]: 0.075 µM (active)
IC50 [6]: 0.36 µM (active)
IC50 [7]: 0.015 µM (active)
SMILES: Cc1cccc(C(=O)Nc2cccc(NC(=O)c3ccccc3)c2)c1

IC50 [8]: > 69.5 µM (inactive)
SMILES: CCOC(=O)c1c(NC(=O)Cn2nc(C(F)F)cc2C(F)F)sc(C)c1C
IC50 [9]: > 69.5 µM (inactive)

SMILES: Cc1c2cccn2cc[n+]1C
EC50 [10]: 79.2 µM (inactive)
IC50 [11]: > 50 µM (not active)
EC50 [12]: > 7.72 µM (active)
EC50 [13]: 17.5 µM (inactive)

SMILES: COc1ccccc1C#Cc1ccc2c(c1)O[C@@H](CN(C)Cc1ccncc1)[C@H](C)CN([C@H](C)CO)S2(=O)=O
AC50 [14]: 9.35 µM (active)
AC50 [15]: 7.34 µM (active)
AC50 [16]: 4.51 µM (active)
AC50 [17]: 27.7 µM (active)
AC50 [18]: 2.39 µM (active)
AC50 [19]: 42.1 µM (active)
AC50 [20]: 0.0946 nM (active)
AC50 [21]: 11.5 µM (active)
AC50 [22]: 2.28 µM (active)
AC50 [23]: 13.3 µM (active)

SMILES: Cc1c(Cl)c(=O)oc2c(C)c(OCc3ccccc3)ccc12
IC50 [24]: > 100 µM (inactive)
IC50 [25]: > 100 µM (inactive)

SMILES: Cc1ccc(S(=O)(=O)NNc2nc(NCC(N)=O)nc3ccccc23)cc1
AC50 [26]: > 52 µM (inactive)

IC50 [27]: 8.95 µM
SMILES: COc1ccc(C#Cc2ccc(C(=O)N3CCC(=O)C(C)C3)cc2)cc1 (configuration not stated)
